This note sets out measurements from patent US20120165319A1, “INHIBITORS OF INTERLEUKIN-1 BETA CONVERTING ENZYME” (VERTEX PHARMACEUTICALS INCORPORATED, priority 1995, published 2012).

The test system of series [1] is IL-1β levels in the peritoneal fluid, carrageenan-challenged mice. Kind of series: Mouse carrageenan peritoneal inflammation. The settings on record: for Inhibition (%) of IL-1β production in carrageenan-challenged mice: oral. It counts as in vivo. On the procedure:
Mouse Carrageenan Peritoneal Inflammation
Inflammation was induced in mice with an intraperitoneal (IP) injection of 10 mg carrageenan in 0.5 ml of saline (Griswold et al., Inflammation, 13, pp. 727-739 (1989)). Drugs are administered by oral gavage in ethanol/PEG/water, β-cyclodextrin, labrosol/water or cremophor/water vehicle. The mice are sacrificed at 4 hours post carrageenan administration, then injected IP with 2 ml of saline containing 5 U/ml heparin. After gentle massage of the peritoneum, a small incision is made, the contents collected and volume recorded. Samples are kept on ice until centrifuged (130×g, 8 mins at 4° C.) to remove cellular material, and the resultant supernatant stored at −20° C. IL-1β levels in the peritoneal fluid are determined by ELISA.

The test system of series [2] is male DBA/1J mice, type II collagen-induced arthritis. Kind of series: Type II collagen-induced arthritis. It counts as in vivo, mouse. The note with it: oral gavage twice a day 10, 25 and 50 mg/kg (214e: 50 mg/kg once a day), Arthritis Severity Score, result in words. On the procedure: Type II Collagen-Induced Arthritis
Type II collagen-induced arthritis was established in male DBA/1J mice at described Wooley and Geiger (Wooley, P. H., Methods in Enzymology, 162, pp. 361-373 (1988) and Geiger, T., Clinical and Experimental Rheumatology, 11, pp. 515-522 (1993)). Chick sternum Type II collagen ([…] in 10 mM acetic acid) was emulsified with an equal volume of Freund's complete adjuvant (FCA) by repeated passages (400) between two 10 ml glass syringes with a gauge 16 double-hub needle. Mice were immunized by intradermal injection (50 μl; […], CII per mouse) of collagen emulsion 21 days later at the contra-lateral side of the tail base. Drugs were administered twice a day (10, 25 and 50 mg/kg) by oral gavage approximately 7 h apart. Vehicles used included ethanol/PEG/water, β-cyclodextrin, labrosol/water or cremophor/water. Drug treatments were initiated within 2 h of the CII booster immunization. Inflammation was scored on a 1 to 4 scale of increasing severity on the two front paws and the scores are added to give the final score.

The nature of series [3]: In vivo bioavailability determination (oral, rat). The settings on record: for blood levels of drug when dosed orally: oral 10-100 mg/kg; for blood levels of drug when dosed orally / drug availability when dosed orally: result in words; for Drug Availability / Cmax / drug availability when dosed orally: oral; for Cmax: aldehyde (drug) concentration. On the procedure: In Vivo Bioavailability Determination
The drugs (10-100 mg/kg) were dosed orally to rats (10 mL/kg) in ethanol/PEG/water, β-cyclodextrin, labrosol/water or cremophor/water. Blood samples were drawn from the carotid artery at 0.25, 0.50, 1, 1.5, 2, 3, 4, 6, and 8 hours after dosing, centrifuged to plasma and stored at −70° C. until analysis. Aldehyde concentrations were determined using an enzymatic assay. Pharmacokinetic analysis of data was performed by non-linear regression using RStrip (MicroMath Software, UT).

Series [4] concerns IL-1β production, LPS-challenged mice. Kind of series: In vivo acute assay for efficacy as anti-inflammatory agent: LPS-induced IL-1β production in mice. The note with it: for inhibition of IL-1β production after oral administration, dosed at time of LPS challenge: LPS-challenged mice, vehicles ethanol/PEG/water, β-cyclodextrin, labrosol/water or cremophor/water, result in words; for Inhibition (%) of IL-1β production in LPS-challenged mice: oral, dosed at time of LPS challenge. Also noted: species or system mouse. A digest of the protocol:
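CD1 mice (n=6) were challenged with LPS 20 mg/kg IP and given compound IP in olive oil:DMSO:ethanol (90:5:5) 1 h after LPS, or at the time of challenge for some analogs. Blood was taken 7 h after LPS and serum IL-1β was measured by ELISA. Oral gavage at 50 mg/kg was also tested.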

“Also recorded” adds a separate entry of the source.

One may read the Cmax as the maximum level reached in the sampled fluid or tissue. As for `O=C1C[C@H](NC(=O)[C@@H]2CCCN3C(=O)CC[C@H](NC(=O)c4nccc5ccccc45)C(=O)N23)[C@H](OC2CCCC2)O1` [Compound 412d, [1S,9S(2R,3S)]N-(2-Cyclopentoxy-5-oxotetrahydrofuran-3-yl)-6,10-dioxo-9-(isoquinolin-1-oylamino)-1,2,3,4,7,8,9,10-octahydro-6-H-pyridazino[1,2-a][1,2]diazepine-1-carboxamide], the “Inhibition (%) of IL-1β production in carrageenan-challenged mice” value turned out to be 0% in series [1] (dose 1 mg/kg); 32% in series [1] (dose 10 mg/kg); 31% in series [1] (dose 25 mg/kg); 36% in series [1] (dose 50 mg/kg); 53% in series [1] (dose 100 mg/kg). Further, in series [2], the “inhibition of inflammation / progression of type II collagen-induced arthritis” value is given as “inhibit inflammation; also recorded: blocks the progression”. In addition, in series [3], the “blood levels of drug when dosed orally” value is “significant blood levels of drug”. The “Drug Availability” value in series [3] (dose 25 mg/kg) amounted to 35%. The Cmax in series [3] (dose 25 mg/kg) turned out to be 2600 ng/mL. The “drug availability when dosed orally” value in series [3] is recorded as “good drug availability”. The “inhibition of IL-1β production after oral administration, dosed at time of LPS challenge” value (“inhibition … of LPS challenge” for short) in series [4] is “inhibit IL-1β production”.
`CCO[C@@H]1OC(=O)C[C@@H]1NC(=O)[C@@H]1CCCN2C(=O)CC[C@H](NC(=O)c3nccc4ccccc34)C(=O)N12` [Compound 412f, [1S,9S(2R,3S)]N-(2-Ethoxy-5-oxotetrahydrofuran-3-yl)-6,10-dioxo-9-(isoquinolin-1-oylamino)-1,2,3,4,7,8,9,10-octahydro-6-H-pyridazino[1,2-a][1,2]diazepine-1-carboxamide]: the “inhibition of IL-1β production in carrageenan-challenged mice” value in series [1] (oral administration, 214e at 50 mg/kg, result in words) is reported as “inhibits IL-1β production”. Also, the “Inhibition (%) of IL-1β production in carrageenan-challenged mice” value was 30% in series [1] (dose 1 mg/kg); 54% in series [1] (dose 10 mg/kg); 49% in series [1] (dose 25 mg/kg); 73% in series [1] (dose 50 mg/kg); 75% in series [1] (dose 100 mg/kg). Besides, the “inhibition of inflammation / progression of type II collagen-induced arthritis” value in series [2] is given as “inhibit inflammation; also recorded: blocks the progression”. The “blood levels of drug when dosed orally” value in series [3] is “significant blood levels of drug”. In series [3] (dose 25 mg/kg), the “Drug Availability” value is recorded as 32%. The Cmax in series [3] (dose 25 mg/kg) came out at 2400 ng/mL. In addition, the “drug availability when dosed orally” value in series [3] is reported as “good drug availability”. Besides, the “inhibition … of LPS challenge” value in series [4] is listed as “inhibit IL-1β production”. The figures for the “Inhibition (%) of IL-1β production in LPS-challenged mice” value (“Inhibition (%) … in LPS-challenged mice” below) in series [4] (10 mg/kg dose), in series [4] (25 mg/kg dose) and in series [4] (50 mg/kg dose) were 17%, 25% and 32%, respectively.
On to `O=C(CN1C(=O)[C@@H](NC(=O)c2nccc3ccccc23)CN(C(=O)CO)c2ccccc21)N[C@H]1CC(=O)OC1OCc1ccccc1` (mixture of isomers) [Compound 696a, (3S)-2-Oxo-3-(isoquinolin-1-oyl)amino-5-hydroxyacetyl-N-[(2RS,3S)-benzyloxy-5-oxo-tetrahydrofuran-3-yl]-2,3,4,5-tetrahydro-1H-1,5-benzodiazepine-1-acetamide], for which the “inhibition of inflammation / progression of type II collagen-induced arthritis” value in series [2] is given as “inhibit inflammation; also recorded: blocks the progression”. Moreover, in series [3], the “blood levels of drug when dosed orally” value is reported as “significant blood levels of drug” and the “drug availability when dosed orally” value is recorded as “good drug availability”. Besides, in series [3] (dose 50 mg/kg), the “Drug Availability” value was 10% and the peak concentration (Cmax) came out at 1200 ng/mL. In addition, the “inhibition … of LPS challenge” value in series [4] is “inhibit IL-1β production”. For the same molecule, in series [4] (10 mg/kg dose), the “Inhibition (%) … in LPS-challenged mice” value is on record as 0%. Also, the “Inhibition (%) … in LPS-challenged mice” value in series [4] (25 mg/kg dose) turned out to be 45%. Moreover, the “Inhibition (%) … in LPS-challenged mice” value in series [4] (50 mg/kg dose) worked out at 52%.
